Laboratory results as given in patent US20260256790A1, “DEBIO-0123 IN COMBINATION WITH TEMOZOLOMIDE AND RADIOTHERAPY FOR USE IN TREATING GLIOMA” (Debiopharm International S.A., priority 2023, published 2026).
Like-named read-outs stand apart in the source and are kept apart here.

Tests used:
[1] = Plasma, brain and CSF concentrations (PK) in healthy rats after single oral dose; format: in vivo, Wistar Han rats; conditions: 15 mg/kg p.o. single dose; for Kp: 15 mg/kg
Description: Healthy male Wistar Han rats were treated orally with a single dose of 15 mg/kg Compound of formula (I) (24 rats in total, 3 rats per time-point). Compound of formula (I) was formulated as a suspension in 0.5% methylcellulose with 1% Tween 80 and administered at a concentration of 1.5 mg/mL with a dosing volume of 10 mL/kg.
At designated time-points (0.5; 1; 2; 4; 8; 24; 32; 48 hrs post-dose), the rats were euthanized by carbon dioxide inhalation. Thereafter, blood, CSF, and brain samples were collected as follows. Blood samples were collected by cardiac puncture into K2EDTA containing tubes. The tubes were inverted several times, placed on ice and centrifuged within 30 min of collection (4° C. for 5 min at 6000 rpm) to obtain plasma. The plasma samples were snap frozen in dry ice and stored at −80° C. until analysis. The CSF samples were collected by using a scalp-needle to puncture the foramen magnum. The CSF samples were acidified with 10% formic acid (final sample concentration of 0.5% formic acid) and stored in −80° C. until further analysis. The brain was collected, weighed and snap frozen in dry ice until further analysis. To obtain brain homogenates, firstly water was added to each brain (brain weight:water volume=1:4) then the brain was homogenized with a H-speed dispersator (time procedure: homogenizing for 10 s and interval of 10 s per time, total 3-5 times; cleaning procedure for dispersator: Water-Methanol-Ethanol-Water, 10 s each). The brain homogenate samples were transferred to individual tubes and stored at −80° C. prior to analysis.
The samples were analyzed as follows. For each analytical batch of plasma and brain samples, the standard and quality control (QC) samples were freshly prepared in blank male Wistar Han plasma (with K2EDTA anticoagulant) and brain homogenate. Acidified (containing 0.5% formic acid) artificial CSF was used as standard and quality control for the CSF samples. Additionally, one set of blank male Wistar Han CSF was included as QC sample.
To an aliquot of each standard, QC, control blank and study samples, internal standard (^13CD6-Compound of formula (I)) in methanol/acetonitrile (1:1, v/v) was added. The samples were mixed for 1 minute and centrifuged at 4000 rpm at 4° C. for 15 minutes. Supernatants were transferred and diluted in MeOH/water (1:1, v/v, with 0.1% FA) prior to LC-MS/MS injection.
Chromatographic separation was achieved on a Shimadzu LC-20AD (for plasma and brain samples) or Shimadzu LC-30AD (for CSF samples) using a Kinetex 2.6μ C18 100A column (50 mm*3.00 mm; for plasma and brain samples) or an ACE 5 C4 column (50 mm*2.1 mm; for CSF samples). The following conditions were applied: flow rate: 0.7 mL/min; run time: 3.0 min; mobile phase: A: 5 mM NH4OAc (0.1% FA), B: Acetonitrile (0.1% FA).
Detection was accomplished with an AB Sciex 5500 utilizing electrospray MS/MS in positive ion multiple reaction monitoring mode (MRM). The MRM channels were 511.29/98 for Compound of formula (I) and 518.17/102.10 for the internal standard ^13CD6-Compound of formula (I).
The measured plasma, CSF and brain concentrations at each time-point, the nominal sample collection time, and intended dosages were used for pharmacokinetic analysis. The PK parameters of all study compounds were determined by non-compartmental analysis using WinNonlin Version 8.0 (Pharsight).

SF188 cells [2] = test: ATP-based cell viability assay (CellTiter-Glo 2.0) in control and ATRX-deficient SF188 cells
Description: (§1) SF188 cells were transfected with ATRX siRNA (siATRX_1 or siATRX_2) either individually (A) or as a pool (B and C) or control siRNA (siCon) and ATRX deficiency assessed by determining relative ATRX protein levels by western blotting. Control and ATRX-deficient SF188 cells were then treated with compound of formula (I) at a range of concentrations between 0 and 1.5 uM (FIG. 7A) and at 400 nM (FIG. 7B) and drug sensitivities were assessed via an ATP-based cell viability assay or in colony formation assay.
(§2) For cell viability assessment, SF188 cells were seeded in 96-well culture plates at 100-500 cells in 100 μl of culture media per well. After overnight incubation, 100 μl of culture media containing compound of formula (I) was added to each well at the desired final concentration. After 72 h, cell viability was assessed by CellTiter-Glo 2.0 according to the manufacturer's instructions. Each condition was tested in triplicate or quadruplicate, and the average viability is presented as a percentage of vehicle-treated cells. For colony formation assessment (FIG. 7C), SF188 cells were seeded on a 6-well plate at 100 cells per well in 1 ml of culture media. After overnight incubation, 1 ml of culture media containing compound of formula (I) was added to each well at the desired final concentrations up to 400 nM. At 10 days post-treatment, cell colonies were fixed with 70% ethanol for 30 min, washed with distilled water, and stained with Coomassie Blue. The number of colonies in each well was counted manually. Each colony consisted of >50 cells (corresponds to six doublings from a single cell). Colony-forming efficiency was determined by normalizing the colony numbers to the vehicle-treated cells.

SF188 cells [3] = test: Colony formation assay in SF188 cells; format: cell-based; conditions: up to 400 nM, 10 days post-treatment
Description: as §1
as §2, with “After overnight incubation, 1 ml of culture media containing compound of formula (I) was added to each well at the desired final concentrations up to 400 nM. At 10 days post-treatment, cell colonies were fixed with 70% ethanol for 30 min, washed with distilled water, and stained with Coomassie Blue.” left out, “Each colony consisted of >50 cells (corresponds to six doublings from a single cell).” left out

Compound: Cc1cc(Nc2ncc3c(n2)N(C)CN(c2c(Cl)cccc2Cl)C3=O)ccc1C1CCN(C)CC1 [Compound of formula (I)]
- AUCInf, brain [1]: 8415 ng·h/g
- AUCLast, brain [1]: 8383 ng·h/g
- Cmax, CSF [1]: 15.6 ng/mL
- Cmax, brain [1]: 588 ng/g
- AUC(0-inf) ([1]; male, Wistar Han, rat, CSF, po, read-out: AUCInf, CSF): 221 ng·h/mL
- AUC(0-t) ([1]; male, Wistar Han, rat, CSF, po, read-out: AUCLast, CSF): 219 ng·h/mL
- Kp ([1]; male, Wistar Han, rat, CSF/unbound plasma, oral, unbound plasma from free fraction 7.8%, read-out: CSF to unbound plasma ratio based on AUCInf): 0.2
- Kp ([1]; male, Wistar Han, rat, CSF/unbound plasma, oral, unbound plasma from free fraction 7.8%, read-out: CSF to unbound plasma ratio based on AUCLast): 0.2
- Kp ([1]; male, Wistar Han, rat, CSF/unbound plasma, oral, unbound plasma from free fraction 7.8%, read-out: CSF to unbound plasma ratio based on Cmax): 0.18
- Kp ([1]; male, Wistar Han, rat, brain/plasma, po, read-out: Brain to plasma ratio based on AUCInf): 0.6
- Kp ([1]; male, Wistar Han, rat, brain/plasma, po, read-out: Brain to plasma ratio based on AUCLast): 0.6
- Kp ([1]; male, Wistar Han, rat, brain/plasma, po, read-out: Brain to plasma ratio based on Cmax): 0.52
- Cmax ([1]; male, Wistar Han, rat, plasma, po): 1140 ng/mL
- AUC(0-inf) ([1]; male, Wistar Han, rat, plasma, po, read-out: AUCInf, plasma): 14100 ng·h/mL
- AUC(0-t) ([1]; male, Wistar Han, rat, plasma, po, read-out: AUCLast, plasma): 14100 ng·h/mL
- Viability of SF188 cells (SF188 cells [2]; 0 to 1.5 uM, 72 h, CellTiter-Glo 2.0): significantly reduced the viability of SF188 cells
- Cell viability of ATRX-deficient SF188 cells (SF188 cells [2]; 400 nM, p<0.01): significantly reduced
- IC50 in SF188 cells with ATRX siRNA relative to control siRNA (SF188 cells [2]; cell viability, 72 h): less than half of control siRNA
- Surviving fraction of cells, colony formation assay (SF188 cells [3]): significantly reduced the surviving fraction of cells
